Test results: US9393288B2, “Methods of treating diseases associated with PPARγ” (The University of Vermont and State Agricultural College, priority 2012, dated 2016)
Entries after “also recorded” stand apart in the source; their conditions may differ.

Legend:
[1] = system: brain capillaries; assay: Brain capillary density (von Willebrand factor immunohistochemistry, capillary counting) in SHR; assay type: in vivo, rat; conditions: relaxin-treated SHR vs WKY and untreated SHR
[2] = system: parenchymal arterioles (PA); assay: Pressurized arteriograph: vascular reactivity and structure of PA from female SHR; assay type: in vivo, rat
Procedure: (§1) A separate group of SHR-F was used to determine if relaxin crosses the BBB by treating with relaxin (4 μg/hr) for 14 days and measuring relaxin concentration in cerebrospinal fluid (CSF) and serum (SHR-F-Rln-CSF, n=4). For the osmotic pump implant, animals were anesthetized with 3% isoflurane and minipumps implanted subcutaneously in the back of the neck. All animals received post-surgical analgesia (buprenorphine, 50 μg/kg, s.c.). Relaxin infusion was continuous for 14 days until animals were euthanized for isolated vessel experiments and tissue collection.
After collecting trunk blood, the brain was quickly removed and placed in cold physiological salt solution (PSS). PA between the M1 and M2 region of the MCA territory and the MCA from the same animals were carefully isolated from WKY-F, SHR-F, and SHR-F-Rln groups and mounted on glass cannulas. PA were identified as branches off the MCA that penetrated into the brain tissue, as previously described (han, S. L., and Cipolla, M. J. (2011) Relaxin causes selective outward remodeling of brain parenchymal arterioles via activation of peroxisome proliferator-activated receptor-gamma. FASEB J 25, 3229-3239). […] The proximal cannula was connected to an in-line pressure transducer and a servo-null pressure control system (Living Systems Instrumentation, Burlington, Vt., USA) that allowed intravascular pressure to be maintained at a set pressure or changed at a variable rate. The distal cannula was closed during the experiment to avoid flow-mediated responses. Temperature and pH were continuously measured and maintained at 37.0±0.5° C. and 7.40±0.05, respectively. Measurements of inner diameter (ID) and wall thickness (WT) were made via video microscopy (Living Systems Instrumentation, Burlington, Vt.).
PA and MCA were equilibrated for 1 hour, after which myogenic activity was determined by stepwise increases in pressure from 40 to 100 mmHg for PA or 50 to 175 mmHg for MCA. ID and WT were measured at each pressure once stable. Endothelium-dependent dilation was studied by adding NS309 (10^−8-10^−5 M), an activator of small- and intermediate-conductance calcium-activated potassium channels (SKCa, IKCa). NS309 was washed out of the bath and a single concentration of the nitric oxide synthase (NOS) inhibitor L-nitro-n-arginine (L-NNA, 10^−4 M) added to the bath. Constriction to NOS inhibition was used as an additional indicator of endothelial function. In the presence of L-NNA, sodium nitroprusside (SNP, 10^−8-10^−5 M) was added to the bath to assess endothelium-independent vasodilation. To obtain structural measurements, ID and WT were recorded at pressures between 5 to 200 mmHg for PA or 5 to 175 mmHg for MCA in zero-calcium PSS containing ethylene glycol tetra-acetic acid (EGTA) and outer diameter (OD) and distensibility calculated.
Percent tone was calculated as percent decrease in ID from the passive diameter at each intravascular pressure: [1−(IDactive/IDpassive)]×100. Percent reactivity for vasodilators was calculated as ((IDdose−IDstart)/(IDpassive−IDstart))×100. Percent constriction for vasoconstrictor was calculated as (1−(IDdose/IDstart))×100. OD was calculated from measured ID and WT: ID+2WT. Distensibility at a given pressure was calculated as (IDpassive−IDoriginal)/(IDoriginal)×100, where IDoriginal is defined as passive inner diameter determined at lowest pressure (5 mmHg). Data from qPCR study were analyzed using the −2^ΔΔCT method, as described previously (Livak, K. J., and Schmittgen, T. D. (2001) Analysis of relative gene expression data using real-time quantitative PCR and the 2(−Delta Delta C(T)) Method. Methods 25, 402-408). Data were removed when the Ct values of technical replicates differed by more than 0.5.

[3] = rat, in vivo
Procedure: as §1
Animals were anesthetized with isoflurane (3% in oxygen), decapitated, and trunk blood was collected for measurement of circulating relaxin. Serum was then collected and stored at −80° C. for determination of relaxin levels by enzyme-linked immunosorbent assay (ELISA) following manufacturer's instructions (Human Relaxin-2 Quantikine ELISA Kit, R&D Systems, Minneapolis, Minn., USA). Serum samples were diluted by 1:500 in the assay.
To determine the presence of relaxin in CSF, animals were anesthetized and CSF collected through a needle inserted into the cisterna magna (Liu, L., and Duff, K. (2008) A technique for serial collection of cerebrospinal fluid from the cisterna magna in mouse. Journal of visualized experiments: JoVE). […] Relaxin levels were determined in serum and CSF by ELISA as described above, except CSF was not diluted.

[4] = system: PPARγ and PPARγ target genes; assay: Expression of PPARγ and PPARγ target genes (qPCR) in adipose tissue and brain cortex, SHR; assay type: in vivo, rat
Procedure: After dissecting PA and MCA for isolated vessel experiments, the remaining MCA, PA, and brain cortex from the MCA territory of 4-6 rats were collected and stored at −80° C. in RNase inhibitor (1 unit/μl, RiboLock, Fermentas, Glen Burnie, Md., USA) to determine mRNA expression levels of target genes using real-time qPCR methods. Target genes were assessed using Assays on Demand from Applied Biosystems. […] All primers were designed across an exon-exon junction to avoid detecting genomic DNA, so no DNase treatment was required. Housekeeping gene β-actin was used in all qPCR experiments as a control. Standard techniques for real-time qPCR were performed by the Vermont Cancer Center DNA analysis facility at the University of Vermont, as described previously (Cipolla, M. J., Smith, J., Kohlmeyer, M. M., and Godfrey, J. A. (2009) SKCa and IKCa Channels, myogenic tone, and vasodilator responses in middle cerebral arteries and parenchymal arterioles: effect of ischemia and reperfusion. Stroke 40, 1451-1457).
To investigate the mechanisms by which relaxin causes selectively remodeling of PA, mRNA expression of VEGF, MMP-2, and MMP-9 were compared between MCA, PA, brain cortex. To determine if relaxin activates peroxisome proliferator-activated receptor-gamma (PPARγ), expression levels of PPARγ target genes fatty acid binding protein-4 (FABP4) and plasminogen activator inhibitor-1 (PAI-1) were determined in mesenteric adipose tissue. Expression levels of PPARγ and its target genes PAI-1 and liver X receptors-α (LXR-α) were also determined in brain cortex (Chan, S. L., and Cipolla, M. J. (2012) Determination of PPARgamma activity in adipose tissue and spleen. J Immunoassay Immunochem 33, 314-324).

[5] = SHR-F-Rln vs untreated SHR-F, listed as Relaxin
[6] = SHR-F-Rln vs SHR-F, listed as Relaxin

With relaxin the “Number of capillaries in the brain (capillary density)” value [1] was “significant increase”, the “Reactivity of PA to NS309 (inner diameter increased by)” value ([2]; NS309 10^−6 M, vs 39±11% in SHR-F, p=0.058) was 67±8% and the PA inner diameter ([2]; SHR treated with human relaxin-2 4 μg/hr 14 days, untreated groups 58±3 and 49±3, p<0.05) was 56±4 μm. The PA distensibility ([2]; SHR, relaxin 4 μg/hr 14 days, vs 10±2% in SHR-F, p<0.05) was 34±2%, the “Myogenic reactivity (active ID) of PA” value ([2]; SHR-F-Rln vs untreated SHR-F) was “did not affect” and the “Myogenic tone (percent tone) of PA” value ([2]; SHR-F-Rln vs untreated SHR-F) was “did not affect”. The “Passive ID of PA” value ([2]; SHR-F-Rln vs untreated SHR-F) was “increases the size; also recorded: increased”, the “Passive OD of PA” value ([2]; SHR-F-Rln vs untreated SHR-F) was “increased” and the “Passive distensibility of PA” value ([2]; SHR-F-Rln vs untreated SHR-F) was “increased”. The “Myogenic tone (percent tone) of PA” value [2, 5] was “without affecting”, the “Passive ID of PA” value [2, 5] was “increased” and the “Passive distensibility of PA” value [2, 5] was “big effect; also recorded: increased”. The “Reactivity of PA to the SKCa/IKCa activator NS309” value [2, 5] was “tended to increase; also recorded: increased”, the “Passive ID of PA” value ([2]; at 5 mmHg, vs 44±2 μm in SHR-F) was 42±3 μm and the “Kind of structural remodeling of PA” value ([2]; hypertensive rats, relaxin alone) was “outward eutrophic remodeling”. The “Relaxin in CSF as share of that in the circulation” value [3] was “about 0.3%”, the “Relaxin in cerebrospinal fluid” value [3] was 110 ± 30 pg/mL and the “FABP4 expression in adipose tissue” value [4, 6] was “decreased both FABP4 and PAI-1 expressions in adipose tissue, although this was not statistically significant; also recorded: decreased expression of FABP4 and PAI-1 in adipose tissue, although this was not statistically significant”. The “PAI-1 expression in adipose tissue” value [4, 6] was “decreased both FABP4 and PAI-1 expressions in adipose tissue, although this was not statistically significant; also recorded: decreased expression of FABP4 and PAI-1 in adipose tissue, although this was not statistically significant” and the “Expression of PPARγ and its target genes (PAI-1, LXR-α) in brain cortex” value ([4]; WKY-F, SHR-F, SHR-F-Rln) was “did not affect”.
